Measured values from patent publication US5091523A (priority 1990, dated 1992).
Values after ≈ are worked out from the molar mass of the structure shown. Like-named read-outs stand apart in the source and are kept apart here.

Columns and labels:
[1] = system: MCF-7 human breast tumor cell line; experiment: Inhibition of DNA synthesis ([^3 H] deoxythymidine incorporation), MCF-7; assay type: cell-based; conditions: for inhibition of DNA synthesis: MCF-7, pharmacologically relevant concentrations (FIG. 2)
Source text: (§1) Since a major use of analogues would be for the treatment of this disease, in vitro screening against human breast cancer cell lines was investigated. Two cell lines were investigated. […] The MCF-7 cell line retains estrogen receptor expression, has an absolute requirement for estrogen to form tumors in nude mice, responds to antiestrogen therapy and is more representative of tumors with a better prognosis.
(§2) The cytotoxic effects of Mitomycin-C are largely the result of its interactions with DNA. Consequently, the ability of Mitomycin-C and its analogues to inhibit the rate of incorporation of [^3 H] deoxythymidine into DNA was initially determined. Deoxythymidine is an essential precursor for the synthesis of DNA. The experiments were performed as described by Clarke et al., Br. J. Cancer 51: 365-369 (1985).

[2] = system: murine and human neoplasms; conditions: preclinical and clinical studies; cited from earlier work
P388 leukemia [3] = experiment: Murine P388 leukemia antitumor activity (Example 14, Table 5); assay type: in vivo, murine (CD2F1 male mice)
Source text: T is the mean survival days of mice receiving drug=treated mice
C is the mean survival days of the mice receiving drug vehicle.

bone marrow = conditions: preclinical and clinical studies; cited from earlier work
P388 leukemia [4] = conditions: cited from earlier work
MDA-MB-231 cells [5] = experiment: Anchorage-dependent colony formation; assay type: cell-based, human
Source text: as §1
Consequently, the most accurate methods for determining cell kill measure the ability of a single cell to produce a clone of 50 or more cells (equivalent to six or more divisions). Two clonogenic assays were utilized. The anchorage-dependent assay provides the cells with a solid plastic substrate for attachment. The experiments were preformed as described by van den Berg et al. (1981), supra.

[6] = system: Gram-negative strain of bacteria (HB101); experiment: Antibacterial activity, agar dilution M.I.C. (Example 12, Table 4); assay type: cell-based; conditions: read-out: M.I.C. Gram-negative Bacteria
Procedure: Minimum inhibition concentration (M.I.C.) against a Gram-negative strain of bacteria (HB101) was estimated by the dilution method, with graded concentrations of drug added to agar at 37°-40° C. […] The agar, containing drug, quickly solidified at room temperature, and the bacteria were plated immediately.

metastatic breast cancer = conditions: cited from earlier work
[7] = system: human breast cancer cell lines; assay type: cell-based; conditions: soft agar; for effect on anchorage-independent colony formation / cell survival: two assays (FIG. 5)
Source text: as §1
The anchorage-independent assay ensures that the cells grow in suspension in a soft agar solution. Thus, cells must retain both their basal reproductive integrity and their ability to grow in suspension. The data in FIG. 5 represents the results of two anchorage-independent colony formation assays. The assays were performed as described by Clarke et al., J. Endocrinol. 122: 331-340 (1989).

[8] = system: MDA-MB-231 human breast tumor cell line; experiment: Inhibition of DNA synthesis ([^3 H] deoxythymidine incorporation), MDA-MB-231; assay type: cell-based; conditions: for inhibition of DNA synthesis: MDA-MB-231, pharmacologically relevant concentrations (FIG. 1)
Source text: as §1, §2

MDA-MB-231 cells [9] = experiment: Inhibition of the rate of cell proliferation; assay type: cell-based, human; conditions: for effect on the rate of cell proliferation / cell population kinetics: MDA-MB-231 (FIG. 3)
Source text: as §1
(§3) The interpretation of the effects of cytotoxic drugs on the rate of cell proliferation is a more difficult endpoint to interpret. For example, a cytotoxic agent may apparently reduce the rate of cell growth by killing a proportion of the cells. Alternatively, all the cells in the population may be growth arrested but not killed. Both of these series of events could produce identical growth curves.

[10] = system: human breast cancer cell lines; experiment: Conclusion over all four in vitro endpoints; assay type: cell-based
Source text: as §1, §2, §3
Consequently, the most accurate methods for determining cell kill measure the ability of a single cell to produce a clone of 50 or more cells (equivalent to six or more divisions). […]

[11] = Host toxicity (preliminary data); assay type: in vivo, mice; conditions: for mortality: mouse, in vivo, one ip injection, read-out: fatalities
Source text: Further, in vivo testing will be performed in two parts. Firstly, the host toxicity of the analogues in comparison with the parent drug will be tested. The concentration required to kill approximately 10% of a population of mice will then be determined. Histopathological analysis will determine the effect of drug treatment on tissues and organs. Analysis of white blood cell counts will provide information on hematopoietic toxicity. […] 80% and 100% fatalities were observed following one intraperitoneal injection of 30 and 40 mg/kg MC-77 respectively.

[12] = Weight loss resultant from drug toxicity (Example 14, Table 5)
Procedure: Each compound was administered intraperitoneally to groups of CD2F1 male mice on Day 1 following intraperitoneal implantation of 1×10^6 P388 leukemia cells.
Weight loss resultant from drug toxicity was also determined.

P388 leukemia [13] = experiment: Murine P388 leukemia antitumor activity (Example 11, Table 2); assay type: in vivo, murine (CD2F1 male mice); conditions: for % ILS (percentage increased life span): Day 1, P388 leukemia; for Mean Survival: control 10.0
Procedure: The murine P388 leukemia system, maintained intraperitoneally in female DBA/2 mice, was used to evaluate antitumor activity.
The P388 antileukemic activity of the test compound was assessed by mean survival days and percentage increased life span (ILS). The % ILS was calculated as follows: […]
where T is the mean survival days of the treated mice and C is the mean survival days of the untreated mice.

[14] = system: peripheral leukocyte (WBC); experiment: In vivo murine WBC depression / bone marrow toxicity (Table 3); set-up: species or system normal CD2F1 male mice
Procedure: Blood samples obtained were diluted in 9.98 ml of Isoton (a neutral, isotonic buffer solution) and counted in a Coulter counter after lysis with Zapoglobin (an enzyme solution which lyses red blood cells, but not white blood cells). WBC counts are expressed as a percentage of values from control mice receiving drug vehicle only.

CO[C@@]12[C@H](COC(N)=O)C3=C(C(=O)C(C)=C(N)C3=O)N1C[C@@H]1N[C@@H]12 [Mitomycin C, mitomycin C, reference compound]
inhibition of DNA synthesis [1]: significant and dose dependent inhibition of DNA synthesis | activity against murine and human neoplasms [2]: activity against a variety of murine and human neoplasms | % ILS (P388 leukemia [3]; 5 mg/kg ip): 83 | bone marrow toxicity (bone marrow): severe, delayed bone marrow toxicity | optimal single ip P388 therapeutic dose (P388 leukemia [4]): 4.5 to 5.5 mg/kg | reduction in anchorage-dependent colony forming ability (MDA-MB-231 cells [5]; MDA-MB-231, 0.25 uM): significant reduction in colony forming ability | MIC ([6]; HB101, agar, 24 hours at 37° C.): 0.3 to 0.5 mg/L (≈ 0.897 to 1.5 µM) | objective responses in patients (metastatic breast cancer): significant percentage of objective responses | effect on anchorage-independent colony formation / cell survival [7]: dose dependent reductions in cell survival | inhibition of DNA synthesis [8]: significant and dose dependent inhibition of DNA synthesis | effect on the rate of cell proliferation / cell population kinetics (MDA-MB-231 cells [9]): significantly inhibited the rate of cell proliferation

CO[C@@]12[C@H](COC(N)=O)C3=C(C(=O)C(C)=C(Nc4ccc(O[C@@H]5O[C@H](COC(C)=O)[C@@H](OC(C)=O)[C@H](OC(C)=O)[C@H]5OC(C)=O)cc4)C3=O)N1C[C@@H]1N[C@@H]12 [MC-77, 7-{[4-(2,3,4,6-tetra-O-acetyl-β-D-glucopyranosyl)oxyphenyl]amino}-9-methoxymitosane]
inhibition of DNA synthesis compared with the parent compound ([1]; MCF-7, equimolar concentrations, vs Mitomycin-C): two to five fold greater inhibition of DNA synthesis | inhibition of DNA synthesis [1]: significant and dose dependent inhibition of DNA synthesis | cytotoxic potential compared with the parent drug (all four endpoints) ([10]; vs Mitomycin-C): marked improvement in the cytotoxic potential of between two and five fold | reduction in anchorage-dependent colony forming ability (MDA-MB-231 cells [5]; MDA-MB-231, 0.25 uM): significant reduction in colony forming ability | inhibition of anchorage-dependent colony formation compared with Mitomycin-C (MDA-MB-231 cells [5]; MDA-MB-231, 0.25 uM, vs equimolar Mitomycin-C, estimated): approximately two to five fold greater | fold less toxic than the parent drug ([11]; inconclusive preliminary data, vs Mitomycin-C): up to two fold less toxic than the parent drug | mortality ([11]; 30 mg/kg, preliminary, one experiment): 80% | mortality ([11]; 40 mg/kg, preliminary, one experiment): 100% | toxicity compared with Mitomycin-C ([11]; preliminary): no more toxic when compared with Mitomycin-C | dose response curve for toxicity ([11]; preliminary, one experiment): retained the steep dose response curve for toxicity | effect on anchorage-independent colony formation / cell survival [7]: dose dependent reductions in cell survival | cytotoxicity in anchorage-independent assay compared with Mitomycin-C ([7]; vs Mitomycin-C): two to five fold more cytotoxic | inhibition of DNA synthesis compared with the parent compound ([8]; MDA-MB-231, equimolar concentrations, vs Mitomycin-C): two to five fold greater inhibition of DNA synthesis | inhibition of DNA synthesis [8]: significant and dose dependent inhibition of DNA synthesis | effect on the rate of cell proliferation / cell population kinetics (MDA-MB-231 cells [9]): significantly inhibited the rate of cell proliferation | cell number relative to starting cell number (MDA-MB-231 cells [9]; MDA-MB-231, 1.5 uM): reduced cell number below starting cell number

CO[C@@]12[C@H](COC(N)=O)C3=C(C(=O)C(C)=C(Nc4ccc(OP(=O)(O)O)cc4)C3=O)N1C[C@@H]1N[C@@H]12 [N^7-(4-phosphatophenyl)mitomycin C]
% ILS (P388 leukemia [3]; 15 mg/kg ip): 84 | 30-day survivor (P388 leukemia [3]; 30 mg/kg ip): 1/5 | % ILS (P388 leukemia [3]; 30 mg/kg ip): > 150 | weight loss ([12]; 15 mg/kg ip): No weight loss | Average weight loss ([12]; 30 mg/kg ip): 8% | body weight decrease for all mice ([12]; 45 mg/kg ip, by Day 6 post-drug injection): 20-24%

CO[C@@]12[C@H](COC(N)=O)C3=C(C(=O)C(C)=C(N[C@H]4C(O)O[C@H](CO)[C@@H](O)[C@@H]4O)C3=O)N1C[C@@H]1N[C@@H]12 (some centres unmarked) [N^7-(2-deoxyglucopyranosyl)mitomycin C]
% ILS (percentage increased life span) (P388 leukemia [13]; 5 mg/kg ip): 42% | Mean Survival (P388 leukemia [13]; 5 mg/kg ip): 14.2 days | % ILS (percentage increased life span) (P388 leukemia [13]; 13.5 mg/kg ip): 61% | Mean Survival (P388 leukemia [13]; 13.5 mg/kg ip): 16.1 days | activity against the murine P388 tumor system (P388 leukemia [13]; summary): significant activity against the murine P388 tumor system | WBC Count on Day 3 (as percent of control) ([14]; 13.5 mg/kg ip, normal CD2F1 male mice, Day 3): 94% | bone marrow toxicity as determined by depression of peripheral leukocyte (WBC) count ([14]; summary, at active doses): no significant bone marrow toxicity | MIC ([6]; 24 h): 1.66 to 3.3 mg/L (≈ 3.34 to 6.65 µM)

CO[C@@]12[C@H](COC(N)=O)C3=C(C(=O)C(C)=C(NCCCC(=O)N[C@@H]4O[C@H](COC(C)=O)[C@@H](OC(C)=O)[C@H](OC(C)=O)[C@H]4NC(C)=O)C3=O)N1C[C@@H]1N[C@@H]12 [MC-62, 7-{3-[(2-acetamido-3,4,6-tri-O-acetyl-β-D-glucopyranosyl)-amino]carbonylpropylamino}-9-methoxymitosane]
potency in inhibition of DNA synthesis relative to Mitomycin-C and MC-77 ([1]; MCF-7): significantly less potent than both Mitomycin-C and MC-77 | antineoplastic potential (all four endpoints) [10]: significantly reduced antineoplastic potential | effect on anchorage-dependent colony formation (MDA-MB-231 cells [5]; MDA-MB-231 (FIG. 4)): did not significantly influence colony formation | effect on anchorage-independent colony formation / cell survival [7]: consistently fails to influence colony formation | potency in inhibition of DNA synthesis relative to Mitomycin-C and MC-77 ([8]; MDA-MB-231): significantly less potent than both Mitomycin-C and MC-77 | effect on the rate of cell proliferation / cell population kinetics (MDA-MB-231 cells [9]): failed to markedly influence the rate of MDA-MB-231 growth
